Like-named read-outs stand apart in the source and are kept apart here.
Test system: stress-induced gastric ulcer
Experiment: Anti-ulcer activity: water-immersion restraint stress-induced gastric ulcer in rats, oral (procedure of Takagi et al.)
Format: in vivo, Male Sprague-Dawley rats
Details: for ED50: read-out: ED50 (dose of test compound which gives 50% inhibition)
Method: Some polyisoprene compounds according to the invention were tested to evaluate their anti-ulcer activity in comparison with Teprenone and Gefarnate as controls, in accordance with the procedure proposed by Takagi et al ["Japan. J. Pharmacol.", Vol. 18, page 9 (1968)].
Male Sprague-Dawley rats were used, each having the body weight of 183.9 to 234.5 g. The animals were deprived of food for 24 hours prior to the test. They were immobilized in a restraint cage and immersed for 7 hours to the height of the xiphoid process in a water-bath kept at 23°±1° C. After inflation with 10 ml of 1% formalin, the isolated stomach was opened along the greater curvature. The ulcer index was determined as the sum of length (mm) of each erosion per rat. The compounds were administered orally 30 minutes before the restraint.
Results are shown in following Table 1 in terms of percent inhibition of anti-ulcer activity. In the Table, ED50 represents the dose of test compound which gives 50% inhibition.

[1] = oral, 30 minutes before restraint, rat, read-out: Inhibition (percent inhibition, ulcer index)
[2] = oral, 30 minutes before restraint, rat
[3] = Rattus norvegicus, po, read-out: Inhibition (percent inhibition, ulcer index)

Row | Structure (SMILES) | inhibition in vivo at 12.5 mg/kg [1] | inhibition in vivo at 25 mg/kg [1] | ED50 [2] | inhibition in vivo at 50 mg/kg [1] | ED50 (Rattus norvegicus, po) | inhibition in vivo at 100 mg/kg [3] | inhibition in vivo at 200 mg/kg [3] | inhibition in vivo at 400 mg/kg [3] | inhibition in vivo at 100 mg/kg (100 mg/kg, oral, 30 minutes before restraint, rat, read-out: Inhibition (percent inhibition, ulcer index))
1 | CC(C)=CCCC(C)=CCCC(C)=CCCC(C)=CCCC(C)=CCCC(C)=CCCC(C)=CCCC(C)=CCCC(C)=CCCC(C)=CCSCCNC(=O)CC12CCCN1CCC2 [Example 10, N-[2-(3,7,11,15,19,23,27,31,35,39-Decamethyl-2,6,10,14,18,22,26,30,34,38-tetracontadecaen-1-ylthio)ethyl]-(1-azabicyclo[3.3.0]octan-5-yl)acetamide] | 27.3% | 33.9% | > 50 mg/kg |  |  |  |  |  | 
2 | CC(C)=CCCC(C)=CCCC(C)=CCCC(C)=CCNCC12CCCN1CCC2 [Example 9, 5-{[(3,7,11,15-Tetramethyl-2,6,10,14-hexadecatetraen-1-yl)amino]methyl}-1-azabicyclo[3.3.0]octane] | 38.4% | 67.9% | 16.6 mg/kg | 84.9% |  |  |  |  | 
3 | CC(=CCSCCN)CCCC(C)CCCC(C)CCCC(C)C (stereo not drawn) [Example 2, 2-(3,7,11,15-Tetramethyl-2-hexadecaen-1-ylthio)ethylamine] | 9% | 45% | 30.8 mg/kg | 69% |  |  |  |  | 
4 | CC(C)=CCCC(C)=CCCC(C)=CCCC(C)=CCCC(C)=CCCC(C)=CCCC(C)=CCCC(C)=CCCC(C)=CCCC(C)=CCNCC12CCCN1CCC2 [Example 8, 5-{[(3,7,11,15,19,23,27,31,35,39-Decamethyl-2,6,10,14,18,22,26,30,34,38-tetracontadecaen-1-yl)amino]methyl}-1-azabicyclo[3.3.0]octane] |  |  | > 50 mg/kg | 10.3% |  |  |  |  | 
5 | CC(C)=CCCC(C)=CCCC(C)=CCCC(C)=CCN(CC=C(C)CCC=C(C)CCC=C(C)CCC=C(C)C)CC12CCCN1CCC2 [Example 12, 5-{[Bis(3,7,11,15-tetramethyl-2,6,10,14-hexadecatetraen-1-yl)amino]methyl}-1-azabicyclo[3.3.0]octane] | 21.5% | 50% | ≥ 25 mg/kg |  |  |  |  |  | 
6 | CC(C)=CCCC(C)=CCCC(C)=CCCC(C)=CCCC(C)=CCCC(C)=CCCC(C)=CCCC(C)=CCCC(C)=CCSCCN [Example 1, 2-(3,7,11,15,19,23,27,31,35-Nonamethyl-2,6,10,14,18,22,26,30,34-hexatriacontanonaen-1-ylthio)ethylamine] | -3.1% | 39.7% | 39.7 mg/kg | 55.1% |  |  |  |  | 
7 | CNC(=C[N+](=O)[O-])NCCSCC=C(C)CCC=C(C)CCC=C(C)CCC=C(C)C [Example 7, 2-Methylamino-1-nitro-2-[2-(3,7,11,15-tetramethyl-2,6,10,14-hexadecatetraen-1-ylthio)ethylamino]ethylene] | -7% | 23.8% | 37.4 mg/kg | 67.8% |  |  |  |  | 
8 | CC(C)=CCCC(C)=CCCC(C)=CCSCCN [Example 6, 2-(3,7,11-Trimethyl-2,6,10-dodecatrien-1-ylthio)ethylamine] |  |  | > 50 mg/kg | 15.4% |  |  |  |  | 
9 | CC(C)=CCCC(C)=CCCC(C)=CCCC(C)=CCSCCNC(=O)CC12CCCN1CCC2 [Example 11, N-[2-(3,7,11,15-Tetramethyl-2,6,10,14-hexadecatetraen-1-ylthio)ethyl]-(1-azabicyclo[3.3.0]octan-5-yl)acetamide] | 9.4% | 51% | 26 mg/kg | 68.5% |  |  |  |  | 
10 | CC(C)=CCCC(C)=CCSCCN [Example 3, 2-(3,7-Dimethyl-2,6-octadien-1-ylthio)ethylamine] |  |  | > 50 mg/kg | 13.3% |  |  |  |  | 
11 | CC(C)=CCC/C(C)=C/CC/C(C)=C/CCC(=O)OC/C=C(\C)CCC=C(C)C [Gefarnate, reference compound] |  |  |  |  | 387 mg/kg | 24.6% | 19.2% | 51.5% | 
12 | CC(C)=CCCC(C)=CCCC(C)=CCCC(C)=CCSCCN [Example 5, 2-(3,7,11,15-Tetramethyl-2,6,10,14-hexadecatetraen-1-ylthio)ethylamine] | -2.8% | 57.4% | 21.1 mg/kg | 88% |  |  |  |  | 
13 | CC(C)=CCCC(C)=CCCC(C)=CCCC(C)=CCCC(C)=CCCC(C)=CCCC(C)=CCCC(C)=CCCC(C)=CCCC(C)=CCSCCN [Example 4, 2-(3,7,11,15,19,23,27,31,35,39-Decamethyl-2,6,10,14,18,22,26,30,34,38-tetracontadecaen-1-ylthio)ethylamine] | 11.1% | 24.2% | > 50 mg/kg | 44.4% |  |  |  |  | 
14 | CC(=O)CCC=C(C)CCC=C(C)CCC=C(C)CCC=C(C)C [Teprenone, reference compound] |  | 0% | > 100 mg/kg | 9.4% |  |  |  |  | 48.3%
